Laboratory results published in paper doi:10.1101/2024.03.22.586364, “Development of quantitative high-throughput screening assays to identify, validate, and optimize small-molecule stabilizers of misfolded β-glucocerebrosidase with therapeutic potential for Gaucher disease and Parkinson’s disease” (bioRxiv, 2024).
Positions count from the first letter of the chain named. Counter-ions that a name gives are not always drawn.

Experiments:
[1] = molecular target: T1, HiBiT-GCase-WT (Homo sapiens, UniProt P04062); assay: HiBiT-GCase-WT lytic luminescence assay, H4 reporter cells; type: cell-based; settings: 24 h treatment, 1536-well format
T1 construct: expressed in transfected cells; host or cells: GBA1-KO H4 human neuroglioma cells; transgene stably integrated at the CLYBL safe-harbor locus by TALENs; CAG promoter
T1 sequence (P04062 40-536): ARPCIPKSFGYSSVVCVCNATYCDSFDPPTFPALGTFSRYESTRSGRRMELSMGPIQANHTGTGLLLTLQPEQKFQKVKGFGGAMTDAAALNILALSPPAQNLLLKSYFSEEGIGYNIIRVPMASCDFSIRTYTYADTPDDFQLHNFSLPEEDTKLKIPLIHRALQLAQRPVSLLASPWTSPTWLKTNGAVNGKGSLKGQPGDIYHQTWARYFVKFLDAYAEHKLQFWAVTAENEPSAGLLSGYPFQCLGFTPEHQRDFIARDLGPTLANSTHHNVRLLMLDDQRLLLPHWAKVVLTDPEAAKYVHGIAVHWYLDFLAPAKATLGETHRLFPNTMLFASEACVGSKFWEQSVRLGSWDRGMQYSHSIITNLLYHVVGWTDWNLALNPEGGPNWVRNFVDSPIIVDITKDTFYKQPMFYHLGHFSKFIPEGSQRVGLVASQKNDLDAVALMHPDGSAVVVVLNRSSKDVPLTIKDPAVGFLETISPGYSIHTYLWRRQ
From the text: (§1) Figure 1. HiBiT-tagged GCase retains normal trafficking and function, enabling a high-throughput screening assay measuring cellular GCase levels. (A) GCase was labeled with a small (1.3 kDa), pro-luminescent, N-terminal HiBiT peptide tag immediately following the signal peptide (SP) sequence. (B) This HiBiT-GCase reporter (WT, N370S, or L444P) was engineered into a human Citrate Lyase Beta-Like (CLYBL) intragenic safe-harbor locus within a GBA1-KO H4 cell background using TALEN-enhanced integrative gene transfer. (C) Co-localization of GCase (green) with lysosomal marker LAMP1 (magenta) was determined by immunofluorescent staining. […] (G) GCase protein levels were quantitated by AlphaLISA (Amplified Luminescent Proximity Homogeneous Assay) utilizing a sandwich configuration of two monoclonal antibodies recognizing non-overlapping epitopes, hGCase-1/23 (which was biotinylated and associated with a streptavidin-coated donor bead) and hGCase-1/17 (which was directly conjugated to an acceptor bead). […] (H) GCase activity was measured in cell lysates using the fluorogenic substrate 4-methylumbelliferyl-β-D-glucopyranoside. Relative GCase activity was calculated by adjusting for protein concentration, correcting for GBA1-KO H4 cell background, and normalizing to GBA1-WT signal. […]

[2] = molecular target: T2, HiBiT-GCase-N370S (Homo sapiens, UniProt P04062, N409S); assay: HiBiT-GCase-N370S lytic luminescence assay, H4 reporter cells; type: cell-based; settings: 24 h treatment, 1536-well format
T2 construct: expressed in transfected cells; host or cells: GBA1-KO H4 human neuroglioma cells; transgene stably integrated at the CLYBL safe-harbor locus by TALENs; CAG promoter
T2 sequence (P04062 40-536 N409S): T1 sequence (P04062 40-536) with N370S
From the text: as §1

[3] = molecular target: T3, recombinant GCase-WT (Homo sapiens, UniProt P04062); assay: Microscale thermophoresis (MST) target engagement; type: binding; settings: 50 mM sodium citrate buffer (pH 5.5); n = 2; read-out: dissociation constant (Kd)
T3 construct: purchased Bio-Techne 7410-GHB-020
T3 sequence (P04062 40-536): T1 sequence (P04062 40-536)
Experimental: Microscale thermophoresis (MST) experiments were performed using the Monolith NT.Automated instrument (NanoTemper Technologies). […] The recombinant GCase was further diluted with assay buffer (50 mM sodium citrate, pH 5.5) to 0.160 mg/mL and incubated (RT) for 30 min with 50 nM RED-tris-NTA 2nd Generation dye from the Monolith His-Tag Labeling Kit (Cat.#MO-L018; NanoTemper Technologies). The labeling reaction mixture was centrifuged for 10 min at 4°C and 15,000 × g to remove protein aggregates, after which the supernatant was diluted 2.5x with assay buffer. For each compound measured, a 12-point, 2x titration series of compound in DMSO was prepared; 1 μL of compound in DMSO from each point in the titration series was combined with 9 μL of assay buffer and 10 μL of labeled GCase in a 384-well plate, which was left standing for 30 min (RT). The resultant final concentration of labeled GCase was ~570 nM (in 5% DMSO).

[4] = system: integrated stress response (ISR); parameters: method as in PMID 23741617; settings: read-out: IC50 (potency with which ISRIB modifies its target); cited from earlier work

For `C#Cc1ccc(NC(=O)c2cnn3c(C)cc(C)nc23)cc1` [NCGC758], the “effect on HiBiT-GCase-WT levels (in words)” value [1] was “inactive in all three lines” and the “effect on HiBiT-GCase-N370S levels (in words)” value [2] was “inactive in all three lines”.
Molecule `O=C(COc1ccccc1C(=O)Nc1ccc(I)cc1)Nc1ccc(I)cc1` [NCGC00241326-01, N-(4-iodophenyl)-2-(2-((4-iodophenyl)amino)-2-oxoethoxy)benzamide] has a Kd [3] of 3750 nM.
With `Nc1c(Br)cc(Br)cc1CN[C@H]1CC[C@H](O)CC1` [NCGC00371077-02, Ambroxol HCl] the “effect on HiBiT-GCase-WT levels (in words)” value [1] was “increased HiBiT-GCase levels in all three lines” and the “effect on HiBiT-GCase-N370S levels (in words)” value [2] was “increased HiBiT-GCase levels in all three lines”.
In the case of `O=C(COc1ccc(Cl)cc1)N[C@H]1CC[C@H](NC(=O)COc2ccc(Cl)cc2)CC1` [NCGC00384174-12, trans-ISRIB], the IC50 [4] is listed as 5 nM.
